The CheMixHub viscosity set

Assay: xn = mol fraction of the nth substance listed

CCCC[P+](CCCC)(CCCC)CCCC.[Cl-] + O
Details	viscosity [mPa·s]
298.15 K, 100 kPa, x1 = 0.008058	1.485

C[N+](C)(C)CCO.[Cl-] + O
Details	viscosity [mPa·s]
298.15 K, 101.33 kPa, x1 = 0.002	0.9099

Cc1ccc(S(=O)(=O)[O-])cc1.[Na+] + O
viscosity [mPa·s], 101 kPa
Details	x1 = 9e-05	x1 = 0.00018	x1 = 0.0009	x1 = 0.0018	x1 = 0.00448	x1 = 0.00893	x1 = 0.0133	x1 = 0.0177
298.15 K	0.899	0.9	0.916	0.941	1.002	1.113	1.235	1.368
318.15 K	0.598	0.599	0.609	0.626	0.661	0.728	0.799	0.879

NCCO.O=CO + O
viscosity [mPa·s], 101 kPa
Details	x1 = 0.0088	x1 = 0.0186	x2 = 0.8561	x2 = 0.8993	x2 = 0.9327	x2 = 0.9591	x2 = 0.9712
293.15 K	1.23	1.29	3.936	2.814	2.172	1.842	1.482
298.15 K	1.08	1.17	3.51	2.52	1.914	1.614	1.35
303.15 K	0.99	1.05	3.12	2.28	1.716	1.386	1.23

O=C([O-])CC(O)(CC(=O)[O-])C(=O)[O-].[Na+].[Na+].[Na+] + O
viscosity [mPa·s]
Details	293.15 K	298.15 K	303.15 K
101 kPa, x1 = 0.0013	–	0.94	–
101 kPa, x1 = 0.0025	–	1.033	–
101 kPa, x1 = 0.0052	–	1.126	–
101 kPa, x1 = 0.0067	–	1.21	–
101 kPa, x1 = 0.0146	–	1.805	–
101 kPa, x1 = 0.0243	–	3.067	–
101 kPa, x1 = 0.0364	–	5.952	–
101 kPa, x1 = 0.0518	–	9.7	–
101.33 kPa, x1 = 0.002	1.087	0.959	0.859
101.33 kPa, x1 = 0.0054	1.327	1.168	1.043
101.33 kPa, x1 = 0.0093	1.67	1.466	1.305
101.33 kPa, x1 = 0.0126	2.033	1.78	1.58
101.33 kPa, x1 = 0.0165	2.569	2.242	1.984
101.33 kPa, x1 = 0.0196	3.097	2.696	2.379
101.33 kPa, x1 = 0.0232	3.855	3.346	2.944
101.33 kPa, x1 = 0.0269	4.836	4.185	3.67
101.33 kPa, x1 = 0.0297	5.748	4.963	4.341
101.33 kPa, x1 = 0.0335	7.277	6.263	5.46
101.33 kPa, x1 = 0.0366	8.834	7.583	6.593

O=P([O-])([O-])[O-].[Na+].[Na+].[Na+] + O
viscosity [mPa·s], 101 kPa
Details	x1 = 0.0018	x1 = 0.0054	x1 = 0.0089	x1 = 0.012	x1 = 0.016
298.15 K	0.9742	1.167	1.458	1.859	2.317
303.15 K	0.8777	1.054	1.31	1.67	2.131
308.15 K	0.7769	0.9282	1.146	1.444	1.868
